Data as given in ChEMBL document CHEMBL4402545, “Subtype Selective γ-Aminobutyric Acid Type A Receptor (GABAAR) Modulators Acting at the Benzodiazepine Binding Site: An Update” (J Med Chem, 2020).

Assays:
[1] = target: T1, Gamma-aminobutyric acid receptor subunit alpha-2 (Homo sapiens, UniProt P47869); assay: Binding affinity to GABA-A alpha2 (unknown origin)
T1 sequence (P47869 whole entry): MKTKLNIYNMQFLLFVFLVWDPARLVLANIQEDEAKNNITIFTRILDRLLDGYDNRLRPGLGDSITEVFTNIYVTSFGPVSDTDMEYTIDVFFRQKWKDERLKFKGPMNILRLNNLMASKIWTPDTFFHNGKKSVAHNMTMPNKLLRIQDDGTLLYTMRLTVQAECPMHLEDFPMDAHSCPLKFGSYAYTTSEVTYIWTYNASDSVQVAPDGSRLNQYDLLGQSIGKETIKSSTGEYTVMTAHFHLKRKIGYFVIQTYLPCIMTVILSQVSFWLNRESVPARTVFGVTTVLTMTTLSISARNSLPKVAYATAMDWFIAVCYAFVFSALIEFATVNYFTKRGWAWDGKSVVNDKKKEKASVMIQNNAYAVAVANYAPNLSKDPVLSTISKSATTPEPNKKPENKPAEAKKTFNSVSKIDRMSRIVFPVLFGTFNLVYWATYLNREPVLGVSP

[2] = target: T2, Gamma-aminobutyric acid receptor subunit alpha-1 (Homo sapiens, UniProt P14867); assay: Binding affinity to GABA-A alpha1 (unknown origin)
T2 sequence (P14867 whole entry): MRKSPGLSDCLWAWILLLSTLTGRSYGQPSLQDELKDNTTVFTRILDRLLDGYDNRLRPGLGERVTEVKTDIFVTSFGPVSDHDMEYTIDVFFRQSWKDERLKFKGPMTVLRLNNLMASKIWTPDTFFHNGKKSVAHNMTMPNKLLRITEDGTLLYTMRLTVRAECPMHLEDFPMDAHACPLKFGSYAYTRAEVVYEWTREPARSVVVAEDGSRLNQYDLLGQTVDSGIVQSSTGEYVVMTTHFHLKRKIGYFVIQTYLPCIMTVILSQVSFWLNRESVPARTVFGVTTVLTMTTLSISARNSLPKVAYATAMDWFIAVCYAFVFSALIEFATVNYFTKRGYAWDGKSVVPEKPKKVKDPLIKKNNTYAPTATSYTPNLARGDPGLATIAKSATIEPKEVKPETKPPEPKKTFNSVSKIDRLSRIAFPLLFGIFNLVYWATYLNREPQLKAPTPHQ

[3] = target: T3, Gamma-aminobutyric acid receptor subunit alpha-3 (Homo sapiens, UniProt P34903); assay: Binding affinity to GABA-A alpha3 (unknown origin)
T3 sequence (P34903 whole entry): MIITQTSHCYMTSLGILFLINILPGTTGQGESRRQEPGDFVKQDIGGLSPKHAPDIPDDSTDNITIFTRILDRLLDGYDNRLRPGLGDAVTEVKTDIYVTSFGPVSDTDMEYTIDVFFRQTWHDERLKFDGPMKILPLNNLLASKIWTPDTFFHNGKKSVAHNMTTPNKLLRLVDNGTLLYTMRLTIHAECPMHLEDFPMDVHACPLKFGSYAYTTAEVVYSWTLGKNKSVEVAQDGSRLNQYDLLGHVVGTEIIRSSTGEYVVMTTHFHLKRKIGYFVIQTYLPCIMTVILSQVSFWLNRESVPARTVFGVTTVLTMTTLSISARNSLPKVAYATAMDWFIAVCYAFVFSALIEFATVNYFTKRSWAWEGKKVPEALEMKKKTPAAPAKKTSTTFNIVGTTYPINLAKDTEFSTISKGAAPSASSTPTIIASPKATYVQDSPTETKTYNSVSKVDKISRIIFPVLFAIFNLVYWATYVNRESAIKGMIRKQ

[4] = test system: Rattus norvegicus; assay: In vivo receptor occupancy at GABAA receptor in po dosed Sprague-Dawley rat assessed as brain concentration causing 50% reduction in [3H]-flumazenil receptor labeling after 0.5 hrs; type: functional
[5] = test system: Rattus norvegicus; assay: In vivo receptor occupancy at GABAA receptor in po dosed Sprague-Dawley rat assessed as plasma concentration causing 50% reduction in [3H]-flumazenil receptor labeling after 0.5 hrs; type: functional
[6] = test system: Rhesus monkey; assay: In vivo receptor occupancy at GABAA receptor in iv dosed rhesus monkey assessed as plasma concentration causing 50% reduction in [11C]-flumazenil receptor labeling by PET method; type: functional, Macaca mulatta
[7] = test system: Homo sapiens; assay: In vivo receptor occupancy at GABAA receptor in human at 5 mg, po relative to control; type: functional
[8] = target: T4, Gamma-aminobutyric acid receptor subunit alpha-1 (Homo sapiens) (UniProt P14867); assay: Negative allosteric modulation of GABA-A alpha1 (unknown origin) assessed as reduction in DMCM induced current relative to control
T4 sequence (whole entry): T2 sequence (P14867 whole entry)

[9] = target: T5, Gamma-aminobutyric acid receptor subunit alpha-2 (Homo sapiens) (UniProt P47869); assay: Binding affinity to GABA-A alpha2 (unknown origin) assessed as reduction in DMCM induced current relative to control
T5 sequence (whole entry): T1 sequence (P47869 whole entry)

[10] = target: T6, Gamma-aminobutyric acid receptor subunit alpha-3 (Homo sapiens) (UniProt P34903); assay: Binding affinity to GABA-A alpha3 (unknown origin) assessed as reduction in DMCM induced current relative to control
T6 sequence (whole entry): T3 sequence (P34903 whole entry)

[11] = test system: Rattus norvegicus; assay: In vivo receptor occupancy at GABAA receptor in po dosed Crl:CD Sprague-Dawley rat assessed as brain concentration causing 50% reduction in [3H]-Ro15-4513 receptor labeling after 1 hr; type: functional

Compound	Ki [1] [nM]	Ki [2] [nM]	Ki [3] [nM]	Occ50 [4] [mg/kg]	Occ50 [5] [ng/mL]	Occ50 [6] [ng/mL]	Occ [7] [%]	Efficacy [8] [%]	Efficacy [9] [%]	Efficacy [10] [%]	Occ50 [11] [mg/kg]
Cc1cc(-c2nncc3c(C(C)(C)C)c(OCc4ncnn4C)nn23)no1	0.85	0.83	0.77	0.39	15	21	75	–	–	–	–
Cc1c(F)c(Nc2ccc(-c3cn(C)cn3)cn2)cc2c1ncn2CC1CC1	32	140	24	–	–	–	–	0	0	0	1.9
